Blank lines part the entries; values can stand above or below the compound they belong to.
Key:
[1] = system: SYCP3-A-specific Th cells; assay: IFN-γ ELISA of SYCP3-A peptide-specific Th cells co-cultured with PBMCs; type: cell-based, human; details: for IFN-γ production of SYCP3-A peptide-specific Th cells: peptide 3 μg/mL, Th cells plus PBMCs of same donor
Procedure: PBMCs were collected from peripheral blood samples of healthy donors by a density gradient separation method using Lymphoprep (Alere Technologies AS 1114547). CD14 positive cells were separated from PBMCs using a magnetic cell separation system (Miltenyi 130-050-201). Differentiation into dendritic cells (DCs) was induced by culturing the cells in the presence of 50 ng/mL GM-CSF (peprotech AF-300-03) and 50 ng/mL IL-4 (peprotech AF-200-04) with 3 mL of a culture medium for human cells in 6-well culture plates (Falcon 353046) for 7 days. The culture medium was AIM-V medium (ThermoFisher SCIENTIFIC 0870112DK) supplemented with 3% of human AB serum (Innovative RESEARCH IPLA-SERAB) inactivated at 56° C. for 30 minutes. Similarly, CD4-positive T-cells were isolated from PBMCs (Miltenyi 130-045-101), and 1×10^5 CD4-positive T-cells were co-cultured with 5×10^4 DCs in the presence of SYCP3-A or SPESP1-B peptide (3 μg/mL) in 96-well flat bottom culture plates (Falcon 353072) at the volume of 200 μL. After 7 days, in order to stimulate the CD4-positive T-cells with the peptide, 100 μL of the culture supernatant was removed from each well, and then SYCP3-A or SPESP1-B peptide (3 μg/mL) and PBMCs (2×10^5) inactivated by gamma-irradiation (40 Gy) were added at the volume of 100 μL. After 2 days, 50 μL of the culture supernatant was removed, and 50 μL of IL-2 (Imunace35, Shionogi) was added at the final concentration of 10 U/mL. For continuous proliferation of the activated CD4-positive T-cells, the cells (1×10^6 cells) were stimulated with SYCP3-A or SPESP1-B peptide and the inactivated PBMCs (1×10^6 cells) every other week and used for the experiments described below.
In order to study the HLA-restriction of the CD4-positive T-cells, an anti-DR antibody (BioLegend 307612) or an anti-HLA-class I antibody (BioLegend 311412) as a control was added to some cultures at the final concentration of 5 μg/mL.

[2] = system: HLA-DR53; assay: HLA type restriction of SYCP3-A with L-DR mouse fibroblast cells; type: cell-based, human; details: SYCP3-A 3 μg/mL
Procedure: (§2) Furthermore, in order to identify the HLA type to which the peptide is restricted, the CD4-positive T-cells (5×10^4 cells) and 3×10^4 cells of a mouse fibroblast cell line having HLA-DR4, DR8, DR9, or DR53 gene (L-DR4, L-DR8, L-DR9, or L-DR53) were co-cultured in the presence of SYCP3-A peptide (3 μg/mL) in 96-well flat bottom culture plates using 200 μL of the culture medium for human cells, and after 24 to 48 hours the IFN-γ concentrations in the culture supernatants were determined as described above.

[3] = target: T1, HLA-DR53 (Homo sapiens, UniProt P01903+P13762); assay: as above; type: cell-based; details: SYCP3-A 3 μg/mL, L-DR53 cells, 24 to 48 hours
T1 construct: expressed in transfected cells; host or cells: mouse fibroblast cell line L-DR53
Procedure: as §2

[4] = system: CD4-positive T-cells; assay: IFN-γ ELISPOT after peptide vaccination of HLA transgenic mice; type: in vivo, mouse; details: A2.DR1-Tg mice vaccinated with partial peptides, stimulation 3 μg/mL, 24 hours
Procedure: HLA-A*02:01/DRB1*01:01 transgenic mice (A2.DR1-Tg mice, […]; Pasteur Institute, France) were intradermally injected with SYCP3-A peptide (synthesized by GenScript) dissolved in 100 μL of PBS using Myjector on Days […]. The mice were euthanized by intraperitoneally administering 200 μL of 500 μg/mL pentobarbital on Day 15. After laparotomy, tumor-draining lymph nodes (dLNs) and spleens were collected and lymphocytes and splenocytes, respectively, were isolated.
The lymphocytes (3×10^5 cells) and the splenocytes (5×10^5 cells) were added to ELISPOT plates (EMD Millipore, MAHAS4510), and the cells were co-cultured in the presence of a control peptide (a peptide of 15 amino acid residues having a sequence not included in SYCP3) or SYCP3-A peptide selected in Test 4 (3 μg/mL) in the complete medium at 150 μL/well for […]. In order to detect the cells producing IFN-γ specifically to SYCP3-A peptide, the ELISPOT assay was performed using a mouse IFN-γ ELISpot BASIC (ALP) kit (MABTECH 3321-2A). The procedure was in accordance with the description of the attached package insert. BCIP-NBT-plus substrate for ELISpot (MABTECH 3650-10) was used as a chromogenic substrate, and PBS-T was used for washing at each step. In addition, in order to confirm that the reaction is produced by CD4-positive T-cells, an anti-mouse CD4 antibody (BioLegend 100435) or an anti-mouse CD8 antibody (BioLegend 100735) was added to some cultures at the final concentration of 5 μg/mL.
As described above, A2.DR1-Tg mice were vaccinated with these partial peptides, dLNs and spleens were collected from each mouse, lymphocytes and splenocytes were isolated, the cells were stimulated with each partial peptide (3 μg/mL) for 24 hours, and the T-cell responses were determined by ELISPOT. CD4-positive T-cells responded to the partial peptides T2, T3, and T4.

[5] = system: helper T-cells; assay: IFN-γ ELISA after DAZL-1C vaccination of Balb/c mice; type: in vivo, mouse
Procedure: Two BALB/cAnNCrlCrlj mice (Balb/c, 10 to 16 weeks old, Charles river) were intradermally injected with 100 μg/50 μL DAZL-1C peptide ([…] (SEQ ID NO: 20): synthesized by GenScript) dissolved in phosphate-buffered saline (PBS, KANTO CHEMICAL CO., INC. 73111) using Myjector (TERUMO SS_05M2913) on Days 0 and 10. The mice were euthanized by intraperitoneally administering 200 μL of 500 μg/mL pentobarbital (nacalai tesque 02095-04) on Day 12. After laparotomy, dLNs and spleens were collected and lymphocytes and splenocytes, respectively, were isolated.
The lymphocytes (3×10^5 cells) and the splenocytes (5×10^5 cells) were added to 96-well flat bottom culture plates (Falcon 353072), and the cells were co-cultured in the presence of a control peptide or DAZL-1C peptide (2.5 μg/mL) in the complete medium at 200 μL/well for 24 hours. In order to detect IFN-γ production specific to DAZL-1C peptide, each 100 μL of the culture supernatants after 24 hours were collected, and the IFN-γ concentrations were determined using an ELISA set (BD Biosciences 551866) in accordance with the description of the attached package insert. In order to confirm that the reaction is produced by CD4-positive T-cells, an anti-mouse CD4 antibody (aCD4; BioLegend 100435) or an anti-mouse CD8 antibody (aCD8; BioLegend 100735) was added to some cultures at the final concentration of 5 μg/mL.

[6] = target: T1, HLA-DR53; assay: HLA type restriction of SPESP1-B with L-DR53; type: cell-based
Procedure: The IFN-γ concentrations of the culture supernatants were determined in the same manner as in Test 8, except that SPESP1-B peptide was used instead of SYCP3-A peptide. Two SPESP1-B-specific Th cell clones (HK15 and HK18) were established from one healthy donor. The peptide-specific IFN-γ production was suppressed when the anti-HLA-DR antibody (aDR) was added to the clones.

[7] = system: SPESP1-B-specific Th cells; assay: IFN-γ ELISA of SPESP1-B peptide-specific Th cells; type: cell-based, human
Procedure: (§1) PBMCs were collected from peripheral blood samples of healthy donors by a density gradient separation method using Lymphoprep (Alere Technologies AS 1114547). CD14 positive cells were separated from PBMCs using a magnetic cell separation system (Miltenyi 130-050-201). Differentiation into dendritic cells (DCs) was induced by culturing the cells in the presence of 50 ng/mL GM-CSF (peprotech AF-300-03) and 50 ng/mL IL-4 (peprotech AF-200-04) with 3 mL of a culture medium for human cells in 6-well culture plates (Falcon 353046) for 7 days. The culture medium was AIM-V medium (ThermoFisher SCIENTIFIC 0870112DK) supplemented with 3% of human AB serum (Innovative RESEARCH IPLA-SERAB) inactivated at 56° C. for 30 minutes. Similarly, CD4-positive T-cells were isolated from PBMCs (Miltenyi 130-045-101), and 1×10^5 CD4-positive T-cells were co-cultured with 5×10^4 DCs in the presence of SYCP3-A or SPESP1-B peptide (3 μg/mL) in 96-well flat bottom culture plates (Falcon 353072) at the volume of 200 μL. […]
The IFN-γ concentrations of the culture supernatants were determined in the same manner as in Test 8, except that SPESP1-B peptide was used instead of SYCP3-A peptide. […]

[8] = system: DAZL1-specific Th cells; assay: IFN-γ ELISA of DAZL-1 peptide-specific Th cells; type: cell-based, human
Procedure: as §1
The IFN-γ concentrations of the culture supernatants were determined in the same manner as in Test 8, except that partial DAZL-1 peptide p11, p12, or p13 was used instead of SYCP3-A peptide. […]

[9] = system: HLA-DR4, DR8, DR9, DR15, DR53; assay: HLA type restriction of partial DAZL-1 peptides with L-DR cells; type: cell-based, human
[10] = system: SYCP3, SPESP1, and DAZL1 gene expression in EBC1, Lu65, and HT-29; assay: Gene expression in cancer cell lines cultured with gemcitabine; type: cell-based, human; details: EBC1, Lu65, HT-29 cultured in the presence of gemcitabine

T1 sequence (P13762 30-266): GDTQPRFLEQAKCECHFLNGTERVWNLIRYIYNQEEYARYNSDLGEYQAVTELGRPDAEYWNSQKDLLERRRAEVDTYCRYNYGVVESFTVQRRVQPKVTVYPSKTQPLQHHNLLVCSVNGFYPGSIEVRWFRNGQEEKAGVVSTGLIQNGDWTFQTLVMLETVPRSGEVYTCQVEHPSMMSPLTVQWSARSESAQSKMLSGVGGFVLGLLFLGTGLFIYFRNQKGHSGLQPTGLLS
T1 sequence (P01903 26-254): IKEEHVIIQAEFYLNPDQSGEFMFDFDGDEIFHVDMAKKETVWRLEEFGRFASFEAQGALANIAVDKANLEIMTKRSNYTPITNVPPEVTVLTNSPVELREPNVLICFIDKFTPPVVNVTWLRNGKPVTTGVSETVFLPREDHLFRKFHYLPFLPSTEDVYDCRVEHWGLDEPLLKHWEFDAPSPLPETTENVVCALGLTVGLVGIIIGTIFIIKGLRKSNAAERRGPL

- peptide-specific reaction (IFN-γ) of Th cells to L-DR53 cells [3]: strong peptide-specific reactions
Compound: QQQKILQQSRIVQSQRLKT (listed as Homo sapiens) [SYCP3-A]
- peptide-specific IFN-γ production with anti-HLA-DR antibody ([1]; SYCP3-A 3 μg/mL, aDR 5 μg/mL, Th clones from three healthy donors): suppressed
- reactivity in samples having no DR53 allele [2]: some reactivity

Compound: QQKILQQSRIVQ (listed as Homo sapiens) [T2]
- T-cell response of CD4-positive T-cells to partial peptide by ELISPOT [4]: responded

Compound: DVQKIVESQINFHGKKLKLGPAIRKQNLC (listed as Homo sapiens) [DAZL-1C]
- ability to activate helper T-cells (peptide-specific IFN-γ production) ([5]; Balb/c mice, 100 μg i.d. Days 0 and 10, restimulation 2.5 μg/mL, 24 hours): activates helper T-cells
- IFN-γ production specific to peptide with anti-CD4 antibody ([5]; anti-mouse CD4 antibody 5 μg/mL): inhibited

Compound: QNLNHYIQVLENLVRSVPS (listed as Homo sapiens) [SPESP1-B]
- HLA type binding and Th cell stimulation [6]: binds to HLA-DR53 and stimulates Th cells
- peptide-specific IFN-γ production with anti-HLA-DR antibody ([7]; clones HK15 and HK18, aDR): suppressed
- IFN-γ production at low concentration ([7]; peptide 0.0003 μg/mL (serially diluted 0.0003 to 30 μg/mL)): sufficient IFN-γ production

Compound: LGPAIRKQNLCAYHVQPRPL (listed as Homo sapiens) [p13]
- IFN-γ production with anti-HLA-DQ antibody [8]: suppressed
- HLA type bound to stimulate Th cells [9]: HLA-DR8

Compound: KILQQSRIVQSQ (listed as Homo sapiens) [T4]
- IFN-γ production of SYCP3-A peptide-specific Th cells [1]: Increased IFN-γ production
- T-cell response of CD4-positive T-cells to partial peptide by ELISPOT [4]: responded

Compound: INFHGKKLKLGPAIRKQNLC (listed as Homo sapiens) [p12]
- HLA type bound to stimulate Th cells [9]: HLA-DR15

Compound: QKILQQSRIVQS (listed as Homo sapiens) [T3]
- IFN-γ production of SYCP3-A peptide-specific Th cells [1]: Increased IFN-γ production
- T-cell response of CD4-positive T-cells to partial peptide by ELISPOT [4]: responded

Compound: QQQKILQQSRVVQSQRLKT (listed as Homo sapiens) [SEQ ID NO: 31, 11th isoleucine residue of SYCP3-A peptide substituted with a valine residue]
- reactivity of SYCP3-A peptide-specific Th cells compared with SYCP3-A ([1]; modified or substituted peptide, similarly tested): not decreased

Compound: Nc1ccn([C@@H]2O[C@H](CO)[C@@H](O)C2(F)F)c(=O)n1 [gemcitabine]
- gene expression levels of SYCP3, SPESP1, and DAZL1 [10]: equivalent to those of the controls

Compound: DVQKIVESQINFHGKKLKLG (listed as Homo sapiens) [p11]
- HLA type bound to stimulate Th cells [9]: HLA-DR4/9/53
